{
  "source": "patent US20070190628A1",
  "about": "“Yeast food composition for fuel ethanol production” (priority 2006, published 2007)",
  "key": {"active dry yeast “z” [1]": {"test_system": "active dry yeast “z”", "assay": "Individual nutritive elements added to normal gravity corn mash: fermentation rate and viable cell numbers", "format": "cell-based, Saccharomyces cerevisiae", "protocol": "Normal gravity corn mash was prepared using ground #2 yellow dent corn obtained from Commercial Alcohols Inc. (275 Bloomfield Road, Chatham, Ontario, Canada N7M 5J5). […] One part by weight of ground corn was dispersed into three parts of 50° C., sterile dH2O containing 1 mM CaCl2.2H2O. To minimize the development of excessive viscosity during gelatinization, 1.25 mL of high temperature (HT-2X) α-amylase such as was supplied by Alltech Inc. in Nicholasville, Ky., USA (HT-2X α-amylase is no longer available from Alltech), was added per litre of mash as the ground corn was dispersed. It should be noted that if Ca-independent alpha amylases are used such as Termamyl® SC supplied by Novozymes North America in Franklinton, N.C., USA, then the 1 mM CaCl2.2H2O is not required. Following the addition of the ground corn and a five-minute mixing period to produce a homogenous mixture, the temperature was increased until the mash reached 94° C. where it was held at this temperature for 60 min with continued stirring. The temperature of the gelatinized starch was then reduced to 80° C. and liquefied by a second dose of HT-2X αx-amylase (1.25 mL/L) with continued stirring for 30 min. Sterile Celstir® (Wheaton Scientific, Millville, N.J.) fermentor vessels were filled with 1 L aliquots of this mash. To each fermentor vessel, filter-sterilized (25 mm, 0.2 μm Acrodisc® syringe filter, Pall Corporation, Ann Arbor, Mich.) urea (Fisher Scientific, Co., NJ), was added to achieve a final concentration of 8 mM. Cold-sterilization of the mash was assured by the addition of 100 μL of diethyl pyrocarbonate (DEPC, Sigma Chemical Co.) per litre of mash mixing the mash mechanically (IKA-Labortechnik, Staufen, Germany) for 5-10 min followed by cooling the fermentor vessels at 4° C. cold room for ˜72 hrs. The fermentor vessels were then removed from the cold room, connected to 30° C. water bath circulators and mixed. Glucoamylase in the form of Allcholase II 400 supplied by Alltech Inc. was then added (1.5 mL/L mash) 30 min prior to yeast inoculation to initiate saccharification of the dextrins formed during gelatinization and liquefaction (it should be noted that Allcholase II 400 is no longer available and any glucoamylase may be used). The mash thus prepared contained 19-20 g of dissolved solids/100 mL of mash as determined by a digital density meter analyzer (model DMA-45, Anton Paar KG, Graz, Austria) maintained at 20° C.\nEleven grams of a commercially available active dry yeast, designated as “z”, were rehydrated by dispersal in 99 mL of preheated 38° C., 0.1% (w/v) sterile water and incubation for 20 min with periodic shaking in a 38° C. water bath. Fermentor vessels containing normal density corn mash were prepared as described above and inoculated with sufficient active yeast to provide an initial viable cell count of 1×10^7 cells per mL mash. The optimal fermentation temperature for the active dry yeast “z” was determined by conducting fermentations at 30°, 34°, 36°, 38°, and 40° C.\nThe effects of individual elements on yeast cell biomass production and fermentation in a fermentation feedstock were assessed by separately supplementing of corn mash with nitrogen, phosphorus, magnesium, sulphur and zinc. Nitrogen effects were assessed in corn mashes by the additions of urea to provide final concentrations in the mash of […]. Phosphorus effects were assessed in corn mashes amended with 16 mM urea, by the additions of (NH4)2HPO4 (BDH Chemicals Inc, Toronto, Ont., MW: 132.06) to provide final concentrations of 0, 0.1, 0.2, 0.4, 0.6, and 0.8 g of (NH4)2HPO4/L of mash. Magnesium effects were assessed in corn mashes amended with 16 mM urea, by the additions of MgSO4.7H2O (BDH Chemicals Inc., MW. 246.48) to provide final concentrations of 0, 0.025, 0.049, 0.074, 0.099, 0.148, 0.197 g of MgSO4.7H2O/L of mash. […]"}, "active dry yeast “z” [2]": {"test_system": "active dry yeast “z”", "assay": "EVOP optimization of phosphorus and sulfur concentrations for fermentation rate in corn mash", "format": "cell-based, Saccharomyces cerevisiae", "conditions": "combined with 16 mM urea, 0.049 g/L MgSO4.7H2O and 0.273 mg/L ZnSO4.7H2O", "protocol": "The Evolution Operation Method (EVOP) described by Box et al, (1969, Evolutionary Operation: A Statistical Method for Process Improvement, John Wiley & Sons, NY, N.Y.) was used to optimize the concentrations of phosphorus and sulfur combined with urea, magnesium and zinc for increasing fermentation rates in corn mash.\nMultiple sterile 2-L Celstir® fermentors were each filled with 1 L of corn mash supplemented with 16 mM urea, 0.049 g/L MgSO4.7H2O, and 0.273 mg/L ZnSO4.7H2O. The active dry yeast “z” was used as the inoculum in this study. The EVOP testing was conducted by using the “low” concentration values of phosphorus and sulfur (0.8 g/L (NH4)2HPO4 and 0.16 g/L (NH4)2SO4) from Table 1 as the center points for assessing 4 additional phosphorus and sulphur concentrations around these points for their effects on fermentation rates. If the response of a particular point around the center point was significant, then this particular point became the new center point and 4 new concentration values would be examined as described by Box et al (1969). […] Fermentation rates were determined by repeated sampling and sample processing at specific time intervals as described in Example 1."}, "[3]": {"conditions": "(NH4)2HPO4 above 0.4 g/L, mash with 16 mM urea"}, "[4]": {"conditions": "ZnSO4.7H2O 0.287 mg/L to 2.30 mg/L (1 to 8 μM), mash with 16 mM urea"}},
  "data": [
    {"compound": "N.N.O=P(O)(O)O", "note": "[(NH4)2HPO4]", "values": [
      {"measurement": "effect on rates of dissolved solids utilization", "setting": "active dry yeast “z” [1]; 0.1 g/L to 0.4 g/L (NH4)2HPO4, mash with 16 mM urea", "value": "significantly increased"},
      {"measurement": "effect on cell yields", "setting": "active dry yeast “z” [1]; [3]", "value": "decreased cell yields"},
      {"measurement": "effect on fermentation rates", "setting": "active dry yeast “z” [1]; [3]", "value": "decreased fermentation rates"},
      {"measurement": "optimal concentration for supplementing corn mash", "setting": "active dry yeast “z” [2]", "value": 1.6, "unit": "g/L"}
    ]},
    {"compound": "O.O.O.O.O.O.O.O=S(=O)([O-])[O-].[Mg+2]", "note": "[MgSO4.7H2O]", "values": [
      {"measurement": "effect on fermentation rate", "setting": "active dry yeast “z” [1]; MgSO4.7H2O exceeding 0.074 g/L (0.3 mM Mg2+), mash with 16 mM urea", "value": "decreased fermentation rate"}
    ]},
    {"compound": "N.N.O=S(=O)(O)O", "note": "[(NH4)2SO4]", "values": [
      {"measurement": "effect on the rate of fermentation", "setting": "active dry yeast “z” [1]; (NH4)2SO4 above 0.04 g/L, mash with 16 mM urea", "value": "did not further benefit"},
      {"measurement": "yeast cell yields", "setting": "active dry yeast “z” [1]; (NH4)2SO4 above 0.04 g/L, mash with 16 mM urea, increased from 3.3×10^8/mL", "value": "4e+08", "unit": "mL⁻¹"},
      {"measurement": "optimal concentration for supplementing corn mash", "setting": "active dry yeast “z” [2]", "value": 0.32, "unit": "g/L"}
    ]},
    {"compound": "O.O.O.O.O.O.O.O=S(=O)([O-])[O-].[Zn+2]", "note": "[ZnSO4.7H2O]", "values": [
      {"measurement": "effect on fermentation rates", "setting": "active dry yeast “z” [1]; [4]", "value": "negative effects"},
      {"measurement": "effect on numbers of yeast cells produced", "setting": "active dry yeast “z” [1]; [4]", "value": "negative effects"}
    ]}
  ]
}
